Source: USRE29469E, “Hydroxylated 15-deoxy derivatives of 9-hydroxyl-13-trans-prostenoic acid” (American Cyanamid Company, priority 1976, dated 1977)

Key:
[1] = test system: bronchospasms elicited by 5-hydroxytryptamine; experiment: Bronchodilator activity (Konzett assay) against 5-hydroxytryptamine; type: in vivo, guinea pigs; details: guinea pig, three cumulative intravenous doses; for ED50: Cavia porcellus, read-out: ED50, spasmogenic agent 5-hydroxytryptamine
Experimental: (§1) Bronchodilator activity was determined in guinea pigs against bronchospasms elicited by intravenous injections of 5-hydroxytryptamine, histamine or acetylcholine by the Konzett procedure, [See J. Lulling, P. Lievens, F. El Sayed and J. Prignot, Arzneimittel-Forschung, 18, 995 (1968).]
(§2) In the Table which follows bronchodilator activity for representative compounds of this invention against one or more of the three spasmogenic agents is expressed as an ED50 determined from the results obtained with three logarithemic cumulative intravenous dose.

[2] = test system: bronchospasms elicited by histamine; experiment: Bronchodilator activity (Konzett assay) against histamine; type: in vivo, guinea pigs; details: guinea pig, three cumulative intravenous doses; for ED50: Cavia porcellus, read-out: ED50, spasmogenic agent histamine
Experimental: as §1, §2

gastric acid secretion = experiment: Inhibition of gastric acid secretion (modified Shay rat procedure); type: in vivo, rats (male, CFE strain); details: 3 hours; for inhibition in vivo at 50 mg/kg: intraduodenal dose 50 mg./kg of body weight
Experimental: The novel compounds of the present invention are also effective inhibitors of gastric acid secretion and of ulcer development in experimental animals, and thus are potentially valuable as agents for the control of gastric acid secretion and of gastric erosion and as anti-ulcer agents. Gastric acid secretion inhibitory action is usually measure by the "Shay rat" procedure^(1,2) with some modifications as follows.
The rats (male, CFE strain) were starved for 48 hours (water was given ad libitum) to permit evacuation of stomach contents. On the morning of the experiment, under ether anesthesia, the abdominal region was shaved and a midline incision (1-11/2 inches) was made with a scapel. With the help of a closed curved hemostate the duodenum was picked up. Upon getting the duodenum into view, fingers were used to pull the stomach through the opening, the stomach was then gently manipulated with fingers to rid the stomach of air and residual matter which were pushed through the pylorus. Two-5 inch sutures were drawn under the pyloric-duodenal puncture. A ligature, at the juncture, was formed with one of the threads. The second ligature was also formed but not tightened.
The test compound and the vehicle, usually 1 ml./100 g. body weight, were injected into the duodenum as close as possible to the first ligature. After injection the second ligature was tightened below the injection site to minimize leakage. The stomach was placed back through the opening into the abdominal cavity, the area of incision was washed with saline and the incision was closed with autoclips. (Occasionally, instead of an intraduodenal injection, animals were dosed by the oral or subcutaneous route. In the latter case, dosing was done 30 to 60 minutes before the operation.)
The abdominal cavity was exposed by cutting with scissors and the esophagus close to the stomach was clamped off with a hemostat, the stomach was removed by cutting above the hemostat (the .[.espphagus.]. .Iadd.esophagus .Iaddend.was cut) and between the two sutures. Extraneous .[.tisue.]. .Iadd.tissue .Iaddend.was removed, the stomach washed with saline and blotted on gauze. A slit was carefully made in the stomach which was held over a funnel and the contents were collected in a centrifuge tube. The stomach was further cut along the outside edge and turned inside out. Two ml. H2 O were used to wash the stomach contents into the respective centrifuged tube. The combined stomach contents and wash were then centrifuged out for 10 min. in the International Size 2 Centrifuge (setting at 30). The supernatant was collected, volume measured and recorded, 2 drops of a phenylphthalein indicator (1% in 95% ethanol) were added and the solution was titrated with 0.02N NaOH (or with 0.04N NaOH when large volumes of stomach contents were encountered to pH 8.4 (because of usual coloring of the stomach contents, phenolphthalein was only used to permit visual indication that the end point was near) and the amount of acid present was calculated.
Compounds inducing inhibition of gastric acid secretion of 20% or more were considered active. In a representative operation, and merely by way of illustration, the results obtained with this assay with typical compounds of the present invention are given in Table II below.

[3] = test system: ulcerogenic properties of indomethacin; experiment: Anti-ulcerogenic effect (protection against the ulcerogenic properties of indomethacin); type: in vivo, rats; details: indomethacin 20 mg./kg s.c.
Experimental: The compounds of this invention also provide protection against the ulcerogenic properties of indomethacin. This assay was carried out in the following manner.
Rats were starved for 48 hours (water was given ad libitum). Indomethacin (20 mg./kg. of body weight) was administered by the subcutaneous route and one-half the dose of the test compound was administered by gavage at the same time. After 3 hours, the second half of the test compound was administered also by gavage. Five hours after the administration of indomethacin the animals were decapitated and the stomachs removed. The stomachs were washed with distilled water, blotted on gauze, cut along the larger curvature, and the contents rinsed with distilled water. The stomachs were spread out, pinned on a cork and visualized under magnifying glass for ulcers. The criteria for scoring of .[.ulers.]. .Iadd.ulcers .Iaddend. was as previously reported. [Abdel-Galil et al. Brit. J. Pharmac. Chemotherapy 33:1-14 (1968)]. […]
1- Petechial hemorrhage or pin point ulcers
3- Many ulcers, a few large
4- Many ulcers, mainly large
A difference of at least 0.7 unit between the scores for control animals (treated with indomethacin but not test compound) and animals treated with indomethacin and test compound is considered indicative of activity for the test compound. (Control animals treated with neither indomethacin nor test compound give scores of about 0.5-0.8.) The results obtained in this assay with typical compounds of the present invention are set forth in Table I below.

[4] = test system: bronchospasms elicited by acetylcholine; experiment: Bronchodilator activity (Konzett assay) against acetylcholine; type: in vivo, guinea pigs; details: Cavia porcellus, guinea pig, three cumulative intravenous doses, read-out: ED50, spasmogenic agent choline
Experimental: as §1, §2

[5] = Rattus norvegicus, read-out: Percent Inhibition
[6] = total oral dose 50 mg./kg, control score 2.3, scale 0 (normal stomach) to 4 (many ulcers, mainly large)
[7] = Rattus norvegicus, intraduodenal dose 100 mg./kg of body weight, read-out: Percent Inhibition

Compound | ED50 [1] [mg/kg] | ED50 [4] [mg/kg] | ED50 [2] [mg/kg] | inhibition in vivo at 50 mg/kg (gastric acid secretion; [5]) [%] | other results
9-oxo-18-hydroxy-19-hydroxy-13-trans-prostenoic acid | – | – | – | – | ED50, spasmogenic agent 5-hydroxytryptamine [1]: 1.19 mg/kg; ED50, spasmogenic agent histamine [2]: 1.04 mg/kg; Percent Inhibition (gastric acid secretion; intraduodenal dose 100 mg./kg of body weight): 28%
CCCCC(O)C/C=C/[C@H]1[C@H](O)CC(=O)[C@@H]1CCCCCCC(=O)O (relative stereo) [9-oxo-11α ,16-dihydroxy-13-trans-prostenoic acid] | 0.000607 | 0.00042 | 0.166 | – | Score treated ([3]; total oral dose 0.18 mg./kg, control score 3.0, scale 0-4): 2.5; Score treated ([3]; total oral dose 0.39 mg./kg, control score 3.0, scale 0-4): 2.0; Score treated ([3]; total oral dose 0.78 mg./kg, control score 3.0, scale 0-4): 1.5; Score treated ([3]; total oral dose 1.56 mg./kg, control score 2.5, scale 0-4): 1.0; Score treated ([3]; total oral dose 4.4 mg./kg, control score 3.0, scale 0-4): 1.0; Score treated ([3]; total oral dose 12.5 mg./kg, control score 3.0, scale 0-4): 1.0; inhibition in vivo at 0.4 mg/kg (gastric acid secretion; Rattus norvegicus, dose 0.4* mg./kg of body weight (asterisk not explained), read-out: Percent Inhibition): 27%; inhibition in vivo at 0.8 mg/kg (gastric acid secretion; Rattus norvegicus, dose 0.8* mg./kg of body weight (asterisk not explained), read-out: Percent Inhibition): 53%; inhibition in vivo at 1.6 mg/kg (gastric acid secretion; Rattus norvegicus, dose 1.6* mg./kg of body weight (asterisk not explained), read-out: Percent Inhibition): 79%
CCCC(O)CC/C=C/[C@H]1[C@H](O)CC(=O)[C@@H]1CCCCCCC(=O)O (relative stereo) [9-oxo-11α,17-dihydroxy-13-trans-prostenoic acid] | 0.235 | 0.518 | 0.45 | 73 | Score treated ([3]; total oral dose 25 mg./kg, control score 2.7, scale 0-4): 1.3
O=C(O)CCCCCC[C@H]1C(=O)C[C@@H](O)[C@@H]1/C=C/CCCCCCO (relative stereo) [11α ,20-dihydroxy-9-oxo-13-trans-prostenoic acid] | 0.377 | 2.34 | 0.077 | – | –
CCCCC(O)C/C=C/[C@H]1CCC(=O)[C@@H]1CCCCCCC(=O)O (relative stereo) [16-hydroxy-9-oxo-13-trans-prostenoic acid] | – | 0.455 | 0.0346 | 67 | Score treated [3, 6]: 1.2
O=C(O)CCCCCC[C@H]1C(=O)C=C[C@@H]1/C=C/CCCCCCO (relative stereo) [20-hydroxy-9-oxo-10,13-trans-prostadienoic acid] | 1.32 | – | 2.28 | 91 | –
O=C(O)CCCCCC[C@H]1C(=O)CC[C@@H]1/C=C/CCCCCCO (relative stereo) [20-hydroxy-9-oxo-13-trans-prostenoic acid] | 0.117 | 2.16 | 0.03 | – | inhibition in vivo at 100 mg/kg (gastric acid secretion; [7]): 56%
O=C(O)CCCCCC[C@@H]1C(=O)CC[C@H]1/C=C/CCCCO (relative stereo) [20-hydroxy-9-oxo-18,19-dinor-13-trans-prostenoic acid] | 2.85 | 10 | 2.22 | 21 | –
CCOC(=O)CCCCCC[C@@H]1C(=O)CC[C@H]1/C=C/CCCCO (relative stereo) [ethyl 20-hydroxy-9-oxo-18,19-dinor-13trans-prostenoate] | – | – | – | – | inhibition in vivo at 100 mg/kg (gastric acid secretion; [7]): 49%
CCCCC(O)CCC[C@H]1CCC(=O)[C@@H]1CCCCCCC(=O)O (stereo partly shown) [9-oxo-16-hydroxy-prostanoic acid, 16-hydroxy-9-oxo-prostanoic acid] | 0.0927 | 1.13 | – | 58 | Score treated [3, 6]: 1.3
